Experimental data: BindingDB's records for doi:10.1016/j.bioorg.2016.10.002 (Hazara University, 2016)

Tests used:
Acetylcholinesterase = Acetylcholinesterase (Electrophorus electricus, UniProt O42275); assay: In vitro AChE and BChE Assay; details: pH 8
Procedure: (§1) The synthesized compounds (each separately) were dissolved in a mixture of DMSO (1 ml) and methanol (9 ml) and then diluted in KH2PO4/K2HPO4 buffer (0.1 M, pH 8.0) to obtain desired concentration. […] The mixture was pre-incubated at 30 °C for 10 min and followed by adding 1 mM ATCI or BTCI and incubated again for 15 min. […] Instead of inhibitor, DMSO was used asnegative control to subtract its effect on activity. All reactions were carried out in triplicate.

[1] = biological target: Carboxylic ester hydrolase (Equus caballus, UniProt Q9N1N9); assay: In vitro AChE and BChE Assay; details: pH 8
Procedure: as §1

Sequence of Carboxylic ester hydrolase (Q9N1N9 whole entry): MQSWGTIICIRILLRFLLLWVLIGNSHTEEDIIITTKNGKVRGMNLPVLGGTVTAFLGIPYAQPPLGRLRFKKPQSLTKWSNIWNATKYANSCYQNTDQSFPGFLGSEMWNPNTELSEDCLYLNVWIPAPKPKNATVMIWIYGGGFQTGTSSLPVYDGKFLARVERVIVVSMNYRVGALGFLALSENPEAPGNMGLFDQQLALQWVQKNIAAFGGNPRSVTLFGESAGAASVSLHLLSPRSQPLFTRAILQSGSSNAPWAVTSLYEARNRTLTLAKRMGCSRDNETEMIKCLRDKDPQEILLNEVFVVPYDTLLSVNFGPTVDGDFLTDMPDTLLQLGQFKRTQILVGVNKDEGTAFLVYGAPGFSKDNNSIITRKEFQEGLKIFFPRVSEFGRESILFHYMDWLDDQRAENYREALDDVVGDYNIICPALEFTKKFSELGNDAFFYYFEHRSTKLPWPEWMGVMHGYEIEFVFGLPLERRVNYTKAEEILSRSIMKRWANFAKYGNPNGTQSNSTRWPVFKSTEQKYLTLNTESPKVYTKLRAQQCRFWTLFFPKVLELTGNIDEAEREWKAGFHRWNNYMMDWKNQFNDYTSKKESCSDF
Sequence of Acetylcholinesterase (O42275 whole entry): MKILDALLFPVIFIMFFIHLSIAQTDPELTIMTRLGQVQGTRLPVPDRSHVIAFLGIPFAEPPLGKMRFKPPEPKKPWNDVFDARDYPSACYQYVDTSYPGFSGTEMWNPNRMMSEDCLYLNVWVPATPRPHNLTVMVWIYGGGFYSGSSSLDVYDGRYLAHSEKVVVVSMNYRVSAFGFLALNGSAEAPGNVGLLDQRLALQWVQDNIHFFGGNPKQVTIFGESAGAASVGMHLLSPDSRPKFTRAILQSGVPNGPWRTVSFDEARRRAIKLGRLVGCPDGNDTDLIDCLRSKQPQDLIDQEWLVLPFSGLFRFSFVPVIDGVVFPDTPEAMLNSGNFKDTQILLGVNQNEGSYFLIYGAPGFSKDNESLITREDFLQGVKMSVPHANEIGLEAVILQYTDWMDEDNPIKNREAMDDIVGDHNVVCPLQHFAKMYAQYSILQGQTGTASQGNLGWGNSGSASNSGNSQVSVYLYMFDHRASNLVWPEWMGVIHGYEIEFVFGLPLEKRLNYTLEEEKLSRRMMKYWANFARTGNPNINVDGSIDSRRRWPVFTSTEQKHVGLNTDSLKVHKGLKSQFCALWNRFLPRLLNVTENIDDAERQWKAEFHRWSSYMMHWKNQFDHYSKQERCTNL

Row | Compound | IC50 (Acetylcholinesterase) [µM] | IC50 [1] [µM]
1 | CC(=O)C1=C(C)NC(N)=NC1c1ccc(OCc2ccccc2)cc1 (stereo not drawn) [1-(2-Amino-4-(4-(benzyloxy)phenyl)-6-methyl-1,4-dihydropyrimidin-5-yl)ethanone (2c)] | 39.5 | –
2 | CC(=O)C1=C(C)NC(N)=NC1c1ccc(Br)cc1 (stereo not drawn) [1-(2-Amino-4-(4-bromophenyl)-6-methyl-1,4-dihydropyrimidin-5-yl)ethanone (2b)] | 58 | –
3 | CC(=O)C1=C(C)NC(N)=NC1c1ccc(Cl)cc1 (stereo not drawn) [1-(2-Amino-4-(4-chlorophenyl)-6-methyl-1,4-dihydropyrimidin-5-yl)ethanone (2e)] | 68.3 | –
4 | CC(=O)C1=C(C)NC(N)=NC1c1ccccc1 (stereo not drawn) [1-(2-Amino-6-methyl-4-phenyl-1,4-dihydropyrimidin-5-yl)ethanone (2a)] | 41.3 | –
5 | CC(=O)C1=C(C)NC(=S)NC1c1ccc(OCc2ccccc2)cc1 (stereo not drawn) [1-(4-(4-(Benzyloxy)phenyl)-6-methyl-2-thioxo-3,4-tetrahydropyrimidin-5-yl)ethanone (1c)] | 28.1 | –
6 | CC(=O)C1=C(C)NC(=S)NC1c1ccc(Br)cc1 (stereo not drawn) [1-(4-(4-Bromophenyl)-6-methyl-2-thioxo-3,4-tetrahydropyrimidin-5-yl)ethanone (1b)] | 53.2 | –
7 | CC(=O)C1=C(C)NC(=S)NC1c1ccc(Cl)cc1 (stereo not drawn) [1-(4-(4-Chlorophenyl)-6-methyl-2-thioxo-3,4-tetrahydropyrimidin-5-yl)ethanone (1e)] | 59.9 | –
8 | CC(=O)C1=C(C)NC(=S)NC1c1ccc(C)cc1 (stereo not drawn) [1-(6-Methyl-2-thioxo-4-p-tolyl-3,4-tetrahydropyrimidin-5-yl)ethanone (1d)] | 55.9 | –
9 | CC(=O)C1=C(C)NC(NCC(=O)Nc2ccc(C)cc2)=NC1c1ccc(Br)cc1 (stereo not drawn) [2-(5-Acetyl-4-(4-bromophenyl)-6-methyl-1,4-dihydropyrimidin-2-ylamino)-N-p-tolylacetamide (5e)] | 3.13 | 20.9
10 | CC(=O)C1=C(C)NC(NCC(=O)Nc2ccccc2)=NC1c1ccc(Br)cc1 (stereo not drawn) [2-(5-Acetyl-4-(4-bromophenyl)-6-methyl-1,4-dihydropyrimidin-2-ylamino)-N-phenylacetamide (5c)] | 12.9 | 38.5
11 | CC(=O)C1=C(C)NC(SCC(=O)Nc2ccc(C)cc2)=NC1c1ccc(Br)cc1 (stereo not drawn) [2-(5-Acetyl-4-(4-bromophenyl)-6-methyl-1,4-dihydropyrimidin-2-ylthio)-N-p-tolylacetamide (4e)] | 1.39 | 52.8
12 | CC(=O)C1=C(C)NC(SCC(=O)Nc2ccccc2)=NC1c1ccc(Br)cc1 (stereo not drawn) [2-(5-Acetyl-4-(4-bromophenyl)-6-methyl-1,4-dihydropyrimidin-2-ylthio)-N-phenylacetamide (4c)] | 8.23 | 24.5
13 | CC(=O)C1=C(C)NC(NCC(=O)Nc2ccc(C)cc2)=NC1c1ccc(Cl)cc1 (stereo not drawn) [2-(5-Acetyl-4-(4-chlorophenyl)-6-methyl-1,4-dihydropyrimidin-2-ylamino)-N-p-tolylacetamide (5f)] | 3.08 | 26.4
14 | CC(=O)C1=C(C)NC(SCC(=O)Nc2ccc(C)cc2)=NC1c1ccc(Cl)cc1 (stereo not drawn) [2-(5-Acetyl-4-(4-chlorophenyl)-6-methyl-1,4-dihydropyrimidin-2-ylthio)-N-p-tolylacetamide (4f)] | 1.11 | 50
15 | CC(=O)C1=C(C)NC(NCC(=O)Nc2ccc(C)cc2)=NC1c1ccc(C)cc1 (stereo not drawn) [2-(5-Acetyl-6-methyl-4-p-tolyl-1,4-dihydropyrimidin-2-ylamino)-N-p-tolylacetamide (5h)] | 7.87 | 29.4
16 | CC(=O)C1=C(C)NC(SCC(=O)Nc2ccc(C)cc2)=NC1c1ccc(C)cc1 (stereo not drawn) [2-(5-Acetyl-6-methyl-4-p-tolyl-1,4-dihydropyrimidin-2-ylthio)-N-p-tolylacetamide (4h)] | 7.63 | 56.3
17 | CC(=O)C1=C(C)NC(NCC(=O)Nc2ccc(Cl)cc2)=NC1c1ccccc1 (stereo not drawn) [2-(5-Acetyl-6-methyl-4-phenyl-1,4-dihydropyrimidin-2-ylamino)-N-(4-chlorophenyl)acetamide (5b)] | 2.01 | 27.2
18 | CC(=O)C1=C(C)NC(NCC(=O)Nc2ccccc2)=NC1c1ccccc1 (stereo not drawn) [2-(5-Acetyl-6-methyl-4-phenyl-1,4-dihydropyrimidin-2-ylamino)-N-phenylacetamide (5a)] | 5.33 | 15
19 | CC(=O)C1=C(C)NC(SCC(=O)Nc2ccccc2)=NC1c1ccccc1 (stereo not drawn) [2-(5-Acetyl-6-methyl-4-phenyl-1,4-dihydropyrimidin-2-ylthio)-N-phenylacetamide (4a)] | 0.17 | 2.37
20 | CC(=O)C1=C(C)NC(SCC(=O)Nc2ccc(Cl)cc2)=NC1c1ccccc1 (stereo not drawn) [2-((5-Acetyl-6-methyl-4-phenyl-1,4-dihydropyrimidin-2-yl)thio)-N-(4-chlorophenyl)acetamide (4b)] | 1.97 | 16.4
21 | CC(=O)C1=C(C)NC(=S)NC1c1ccccc1 (stereo not drawn) [5-Aceto-6-methyl-4-phenyl-3,4-dihydropyrimidin-2(1H)-thione (1a)] | 87.6 | –
